We go through one molecule from article PMC6027146, “Synthesis and Structure-Activity Relationships of (−)-cis-N-Normetazocine-Based LP1 Derivatives” (Pharmaceuticals, 2018).

Structures are written as SMILES.

One assay deals with T1, rat-DOR (Rattus norvegicus, UniProt P33533).
T1 construct: expressed in transfected cells
The assay is described as follows: Radioligand competition binding, [3H]-DPN, HEK293 membranes, DOR. As to conditions: [3H]-DPN displacement; means ± SEM of three experiments in duplicate; read-out: Ki (μM) ± SEM DOR. The method, then:
(§1) All synthesized compounds were tested in vitro by radioligand competition binding using [^3H]-diprenorphine ([^3H]-DPN) to measure the affinity for opioid receptor subtypes in membranes from HEK293 cells stably expressing either MOR, DOR, or KOR, as previously described.
(§2) Confluent monolayers of HEK293 (human embryonic kidney 293) cells stably expressing rat-MOR, rat-DOR, or human-KOR were harvested, collected by centrifugation at 1500 rpm for 5 min, and washed once with phosphate-buffered saline (PBS) at pH 7.5. Membranes from cell pellets were carried out as described by Georgoussi and Zioudrou (1993) and Papakonstantinou et al. (2015). Briefly, cell pellets were resuspended in ice-cold membrane buffer (10 mM Tris-HCl, pH 7.5 and 0.1 mM EDTA), homogenized, and centrifuged at 2,000 g for 3 min at 4 °C. Supernatants were further centrifuged at 45,000 rpm for 30 min at 4 °C. The membrane pellet was resuspended in ice-cold membrane buffer at a protein concentration of approximately 1 mg/mL and stored in aliquots at −70 °C. Protein concentration was determined according to Bradford assay.
(§3) In the experiments designed to define compound affinity and selectivity for MOR, DOR, and KOR, membranes expressing each of these opioid receptors ([…]) were incubated at 30 °C for 45 min in buffer containing 50 mM Tris-HCl, pH 7.5, 100 mM NaCl, and 10 mM MgCl2 as described by Georgoussi et al. […] The ability of compounds 10–16 to displace [^3H]-DPN (3.75 nM) binding to the opioid receptors was assessed as described by Morou And Georgoussi (2005). Non-specific binding was measured in the presence of […] Naloxone. The reaction was stopped by rapid filtration and three washes in ice-cold 50 mM Tris-HCl, pH 7.4, through GF/C filters (Whatman, Maidstone, UK) using an automated cell harvester (Brandel Inc., Gaithersburg, MD, USA). The radioactivity was measured by liquid scintillation counting (Liquid Scintillation Analyzer, Packard).
(§4) Analysis of the binding data was performed using the Origin 7.5 software (OriginLab Corporation, Northampton, MA, USA). In calcium mobilization experiments, data were analyzed by non-linear curve fitting equation, using GraphPad 5.0 software. […] Ligand efficacy was expressed as intrinsic activity (α), calculated as the ratio between the Emax of the ligand and that of the respective standards. Calcium mobilization data were expressed as FIU (fluorescence intensity units) in percent, over the baseline. Agonist potencies are given as pEC50 (the negative logarithm to base 10 of the molar concentration of an agonist that produces 50% of the maximal possible effect, Emax). Concentration response curves to agonists were fitted with the following equation: Effect = baseline + (Emax − baseline)/(1+10^(LogEC50 − X) ∗ HillSlope) where X is the agonist concentration.

Another assay has as its target T2, recombinant human MOR (Homo sapiens, UniProt P35372).
T2 construct: expressed in transfected cells; gift of Dr. Larry Toll (SRI International); infected with a retrovirus for Gαqi5
The assay is described as follows: Calcium mobilization assay, CHO-MOR cells expressing Gαqi5. In kind it is cell-based.

For the next assay, the system named is DOR. Also on record: method as in PMID 22100511. The conditions noted are these: 10 nM; cited from earlier work.
For the next assay, the target named is human-KOR (Homo sapiens, UniProt P41145). The assay is described as follows: Radioligand competition binding, [3H]-DPN, HEK293 membranes, KOR. Also on record: expressed in transfected cells. As to conditions: [3H]-DPN displacement; means ± SEM of three experiments in duplicate; read-out: Ki (μM) ± SEM KOR. The method, then: as §1, §2, §3, §4

As for `C[C@H]1[C@H]2Cc3ccc(O)cc3[C@]1(C)CCN2CCC(=O)Nc1ccccc1` [LP1, 3-[(2R,6R,11R)-8-hydroxy-6,11-dimethyl-1,4,5,6-tetrahydro-2,6-methano-3-benzazocin-3(2H)-yl]-N-phenylpropanamide, reference compound], the results for the Ki on rat-DOR and at human-KOR were 0.033 ± 0.02 µM and 7.5 ± 0.015 µM, respectively. At recombinant human MOR, the EC50 was 97.7 nM. For the same molecule, the “intrinsic activity (α) at MOR” value at recombinant human MOR (ratio of Emax of ligand to that of the standard) was 0.40 ± 0.020. Also, the “inhibition of [35S]GTPγS binding” value in the assay with DOR is on record as 30%.
